Like-named read-outs stand apart in the source and are kept apart here.
Key:
[1] = test system: MDA-MB-231; assay: In vitro antiproliferative MTT assay on MDA-MB-231; format: cell-based, human; conditions: mean of two independent measurements with three replicates each, read-out: Calculated IC50 ± SEM, MDA-MB-231
From the text: (§1) Gynecological cancer cell lines of human origin including breast cancer like the triple negative MDA-MB-231 and estrogen receptor positive MCF-7, […] cervical adenocarcinoma (HeLa), and human glioblastoma (U-87) cell lines were used as in vitro models to study the antiproliferative effects of the evaluated compounds. All cell lines were cultivated in T-75 flasks in a minimal essential medium (MEM) supplemented with 10% heat-inactivated fetal bovine serum (FBS), 1% antibiotic-antimycotic mixture (penicillin-streptomycin-amphotericin B) and 1% non-essential amino acids. Non-cancerous human lung fibroblast cell line (MRC-5) was maintained in low glucose Dulbecco’s Modified Eagle Medium (DMEM) supplemented with 20% heat-inactivated FBS, 1% antibiotic-antimycotic mixture and 4 mM L-glutamine. The cells were incubated at 37°C in 5% CO^2 incubator. The cells were seeded in 96-well plates at a density of 5 x 10^3 in 100 μL per well, except for the U-87 and MRC-5 that were seeded at 1 x 10^4 density and incubated at the same conditions for overnight to allow the cells’ attachment to the well’s bottom before the treatment.
(§2) The compounds were dissolved in dimethyl sulfoxide (DMSO) as 10 mM standard stock solutions and kept at -20°C with minimum light exposure. Immediately before each experiment, the stock solution was used and diluted with a culture medium to get the final concentrations. The values of half-maximal inhibitory concentration (IC50) were determined by exposure of the cells into eight different concentrations of each tested compound (0.39, 0.78, 1.56, 3.125, 6.25, 12.5, 25 and 50 μM). Temozolomide (TMZ) and cisplatin were used as positive controls in the case of U-87 and the gynecological cell lines, respectively. The negative control wells included the cells with only MEM treatment. The plates were incubated for up to 72 hours under the same abovementioned incubation conditions. The colorimetric MTT assay was used to assess the compounds’ effect on cell proliferation. Briefly, 20 μL of MTT solution ([3-(4,5-dimethylthiazol-2-yl)-2,5-diphenyltetrazolium bromide], 5 mg/mL in PBS, Duchefa Biochemie BV, Haarlem, The Netherlands) was added to each well including the negative controls and kept under the usual incubation circumstances for additional four hours. Subsequently, the media was carefully aspirated and 100 μL of DMSO was added to each well and the plates were gently shaken for 30 min to solubilize the precipitated crystals of purple formazan. Absorbance was measured at a wavelength of 545 nm using a microplate UV-VIS reader (SPECTROstar Nano, BMG Labtech GmbH, Offenburg, Germany). The same procedure was performed using MRC-5 cells to determine the cancer selectivity of the most promising test compounds.
(§3) Cell viability data were collected from two separate experiments in triplicates and evaluated using GraphPad Prism 9.5.1 (GraphPad Software Inc., San Diego, CA, USA). The half-maximal inhibitory concentration (IC50) values were determined using the log inhibitor vs normalized response nonlinear regression model. Difference between the IC50 values of a hybrid and its corresponding fragments’ experimental combination was statistically evaluated using unpaired T-test. Cancer selectivity of the most promising test compounds was characterized by calculating and comparing their selectivity index (SI). The value of the parameter derives from the ratio of IC50 value of test compound on MRC-5 cells and that on U-87 cells. The higher the value, the better the cancer selectivity of the test compound.

[2] = test system: MCF-7; assay: In vitro antiproliferative MTT assay on MCF-7; format: cell-based, human; conditions: mean of two independent measurements with three replicates each, read-out: Calculated IC50 ± SEM, MCF-7
From the text: as §1, §2, §3

[3] = test system: HeLa; assay: In vitro antiproliferative MTT assay on HeLa; format: cell-based, human; conditions: up to 72 hours, mean of two independent measurements with three replicates each, read-out: Calculated IC50 ± SEM, HeLa
From the text: as §1, §2, §3

[4] = test system: U-87 glioblastoma cells; assay: In vitro antiproliferative MTT assay on U-87; format: cell-based, human
From the text: as §1, §2, §3

[5] = test system: MRC-5 non-cancerous human lung fibroblast cell line; assay: In vitro antiproliferative MTT assay on MRC-5 (cancer selectivity); format: cell-based; conditions: for IC50: MRC5, Table 3, non-cancerous human lung fibroblasts, read-out: Calculated IC50 ± SEM, MRC-5; for Selectivity index SI = IC50 (MRC-5)/IC50 (U-87): MRC-5 vs U-87
From the text: as §1, §2, §3

[6] = test system: U-87 cells; assay: Combination assay: equimolar fragment mixtures vs hybrids on U-87; format: cell-based, human; conditions: U-87 cells
Description: as §2
Combination study was performed by treating cells with equimolar mixtures of the abovementioned fragments or their hybrids, and corresponding cell viability data were comparatively evaluated. In this bioassay, at least two separate experiments were performed, each in triplicate. The dataset was then subjected to appropriate statistical analysis. The calculated IC50 values were subsequently employed to quantitatively assess the extent of pharmacological benefit obtained through the hybridization of fragments in comparison to the cytotoxic effect produced by the experimental combination of PA or its derivatives and TQ fragments.
as §3

[7] = Homo sapiens, MDA-MB-231, up to 72 hours
[8] = Homo sapiens, MCF7, up to 72 hours
[9] = Homo sapiens, MTT, up to 72 hours, mean of two independent measurements with three replicates each, read-out: Calculated IC50 ± SEM, U-87
[10] = Homo sapiens, Table 3, U-87 glioblastoma, read-out: Calculated IC50 ± SEM, U-87 (Table 3)

Compound: N.N.[Cl][Pt][Cl] [Cis, cisplatin, reference compound]
- IC50 ([1]; up to 72 hours): 9.71 ± 0.51 µM
- IC50 ([2]; up to 72 hours): 6.55 ± 0.77 µM
- IC50 [3]: 16 ± 2 µM
- IC50 ([4]; MTT, up to 72 hours, mean of two independent measurements with three replicates each, read-out: Calculated IC50 ± SEM, U-87): 9.13 ± 1.79 µM

Compound: CC1=CC(=O)C(C(C)C)=CC1=O [Compound 2, 2-isopropyl-5-methylcyclohexa-2,5-diene-1,4-dione]
- IC50 [1, 7]: 7.02 ± 0.17 µM
- IC50 [2, 8]: 24 ± 1.37 µM
- IC50 ([3]; Homo sapiens, HeLa): > 100 µM
- IC50 [4, 9]: 39.1 ± 3.53 µM

Compound: CC1=C(CCC(=O)O)C(=O)C(C(C)C)=CC1=O [Compound 3, 3-(5-isopropyl-2-methyl-3,6-dioxocyclohexa-1,4-dien-1-yl)propanoic acid]
- IC50 [1, 7]: 38.2 ± 2.81 µM
- IC50 [2, 8]: > 100 µM
- IC50 ([3]; Homo sapiens, HeLa): > 100 µM
- IC50 [4, 9]: 77.7 ± 1.61 µM

Compound: CC1=CC(=O)C(C(C)C)=C(CCC(=O)O)C1=O [Compound 4, 3-(2-isopropyl-5-methyl-3,6-dioxocyclohexa-1,4-dien-1-yl)propanoic acid]
- IC50 [1, 7]: 12.4 ± 0.37 µM
- IC50 [2, 8]: > 100 µM
- IC50 ([3]; Homo sapiens, HeLa): > 100 µM
- IC50 [4, 9]: 88.7 ± 5.17 µM
- IC50 [4, 10]: 88.7 ± 5.17 µM
- IC50 [5]: 40.2 ± 1.04 µM

Compound: O=C1C=CC(O)(c2cc(=O)c3c(O)cc(O)cc3o2)C=C1 [Compound 6, Protoapigenone]
- IC50 [1, 7]: 0.57 ± 0.07 µM
- IC50 [2, 8]: 0.66 ± 0.06 µM
- IC50 ([3]; Homo sapiens, HeLa): 1.8 ± 0.09 µM
- IC50 [4, 9]: 1.73 ± 0.11 µM
- IC50 [4, 10]: 1.73 ± 0.11 µM
- IC50 [5]: 2.62 ± 0.2 µM
- Selectivity index SI = IC50 (MRC-5)/IC50 (U-87) [5]: 1.51

Compound: COC1(c2cc(=O)c3c(O)cc(O)cc3o2)C=CC(=O)C=C1 [Compound 7]
- IC50 [1, 7]: 2.23 ± 0.13 µM
- IC50 [2, 8]: 3.95 ± 0.3 µM
- IC50 ([3]; Homo sapiens, HeLa): 5.51 ± 0.21 µM
- IC50 [4, 9]: 7.03 ± 0.11 µM

Compound: CCOC1(c2cc(=O)c3c(O)cc(O)cc3o2)C=CC(=O)C=C1 [Compound 8]
- IC50 [1, 7]: 1.22 ± 0.03 µM
- IC50 [2, 8]: 2.5 ± 0.11 µM
- IC50 ([3]; Homo sapiens, HeLa): 2.83 ± 0.12 µM
- IC50 [4, 9]: 1.73 ± 0.06 µM
- IC50 [4, 10]: 1.73 ± 0.06 µM
- IC50 [5]: 3.79 ± 0.25 µM
- Selectivity index SI = IC50 (MRC-5)/IC50 (U-87) [5]: 2.19

Compound: CCCCOC1(c2cc(=O)c3c(O)cc(O)cc3o2)C=CC(=O)C=C1 [Compound 9]
- IC50 [1, 7]: 0.82 ± 0.05 µM
- IC50 [2, 8]: 2.01 ± 0.07 µM
- IC50 ([3]; Homo sapiens, HeLa): 1.88 ± 0.1 µM
- IC50 [4, 9]: 1.5 ± 0.12 µM
- IC50 [4, 10]: 1.5 ± 0.12 µM
- IC50 [5]: 3.56 ± 0.12 µM
- Selectivity index SI = IC50 (MRC-5)/IC50 (U-87) [5]: 2.37

Compound: CC1=C(CCC(=O)Oc2cc(O)c3c(=O)cc(C4(O)C=CC(=O)C=C4)oc3c2)C(=O)C(C(C)C)=CC1=O [Compound 10]
- IC50 [1, 7]: 1.27 ± 0.04 µM
- IC50 [2, 8]: 1.65 ± 0.07 µM
- IC50 ([3]; Homo sapiens, HeLa): 2 ± 0.26 µM
- IC50 [4, 9]: 6.16 ± 0.49 µM

Compound: COC1(c2cc(=O)c3c(O)cc(OC(=O)CCC4=C(C)C(=O)C=C(C(C)C)C4=O)cc3o2)C=CC(=O)C=C1 [Compound 11, 5-hydroxy-2-(1-methoxy-4-oxocyclohexa-2,5-dien-1-yl)-4-oxo-4H-chromen-7-yl 3-(5-isopropyl-2-methyl-3,6-dioxocyclohexa-1,4-dien-1-yl)propanoate]
- IC50 [1, 7]: 2.25 ± 0.13 µM
- IC50 [2, 8]: 2.66 ± 0.11 µM
- IC50 ([3]; Homo sapiens, HeLa): 3.51 ± 0.17 µM
- IC50 [4, 9]: 7.63 ± 0.46 µM
- Hybrid vs corresponding 1:1 fragment mixture, antiproliferative activity in words [6]: synergism

Compound: CCOC1(c2cc(=O)c3c(O)cc(OC(=O)CCC4=C(C)C(=O)C=C(C(C)C)C4=O)cc3o2)C=CC(=O)C=C1 [Compound 12, 2-(1-ethoxy-4-oxocyclohexa-2,5-dien-1-yl)-5-hydroxy-4-oxo-4H-chromen-7-yl 3-(5-isopropyl-2-methyl-3,6-dioxocyclohexa-1,4-dien-1-yl)propanoate]
- IC50 [1, 7]: 2.15 ± 0.08 µM
- IC50 [2, 8]: 3.21 ± 0.07 µM
- IC50 ([3]; Homo sapiens, HeLa): 2.35 ± 0.15 µM
- IC50 [4, 9]: 8.22 ± 0.73 µM

Compound: CCCCOC1(c2cc(=O)c3c(O)cc(OC(=O)CCC4=C(C)C(=O)C=C(C(C)C)C4=O)cc3o2)C=CC(=O)C=C1 [Compound 13, 2-(1-butoxy-4-oxocyclohexa-2,5-dien-1-yl)-5-hydroxy-4-oxo-4H-chromen-7-yl 3-(5-isopropyl-2-methyl-3,6-dioxocyclohexa-1,4-dien-1-yl)propanoate]
- IC50 [1, 7]: 0.99 ± 0.05 µM
- IC50 [2, 8]: 1.68 ± 0.16 µM
- IC50 ([3]; Homo sapiens, HeLa): 1.4 ± 0.25 µM
- IC50 [4, 9]: 3.43 ± 0.25 µM

Compound: COC1(c2cc(=O)c3c(O)cc(OC(=O)CCC4=C(C(C)C)C(=O)C=C(C)C4=O)cc3o2)C=CC(=O)C=C1 [Compound 15, 5-hydroxy-2-(1-methoxy-4-oxocyclohexa-2,5-dien-1-yl)-4-oxo-4H-chromen-7-yl 3-(2-isopropyl-5-methyl-3,6-dioxocyclohexa-1,4-dien-1-yl)propanoate]
- IC50 [1, 7]: 3.53 ± 0.17 µM
- IC50 [2, 8]: 5.44 ± 1.32 µM
- IC50 ([3]; Homo sapiens, HeLa): 6.78 ± 0.28 µM
- IC50 [4, 9]: 18.9 ± 3.42 µM
- Hybrid vs corresponding 1:1 fragment mixture, antiproliferative activity in words [6]: no apparent difference

Compound: CCOC1(c2cc(=O)c3c(O)cc(OC(=O)CCC4=C(C(C)C)C(=O)C=C(C)C4=O)cc3o2)C=CC(=O)C=C1 [Compound 16, 2-(1-ethoxy-4-oxocyclohexa-2,5-dien-1-yl)-5-hydroxy-4-oxo-4H-chromen-7-yl 3-(2-isopropyl-5-methyl-3,6-dioxocyclohexa-1,4-dien-1-yl)propanoate]
- IC50 [1, 7]: 1.98 ± 0.06 µM
- IC50 [2, 8]: 4.11 ± 0.34 µM
- IC50 ([3]; Homo sapiens, HeLa): 1.71 ± 0.16 µM
- IC50 [4, 9]: 6.06 ± 0.4 µM
- Hybrid vs corresponding 1:1 fragment mixture, antiproliferative activity in words [6]: no apparent difference

Compound: CCCCOC1(c2cc(=O)c3c(O)cc(OC(=O)CCC4=C(C(C)C)C(=O)C=C(C)C4=O)cc3o2)C=CC(=O)C=C1 [Compound 17, 2-(1-butoxy-4-oxocyclohexa-2,5-dien-1-yl)-5-hydroxy-4-oxo-4H-chromen-7-yl 3-(2-isopropyl-5-methyl-3,6-dioxocyclohexa-1,4-dien-1-yl)propanoate]
- IC50 [1, 7]: 1.08 ± 0.08 µM
- IC50 [2, 8]: 2.7 ± 0.09 µM
- IC50 ([3]; Homo sapiens, HeLa): 3.08 ± 0.46 µM
- IC50 [4, 9]: 8.65 ± 1.15 µM

Compound: Cn1nnc2c(C(N)=O)ncn2c1=O [TMZ, temozolomide, reference compound]
- IC50 [4, 9]: 388 ± 43 µM
- IC50 [4, 10]: 388 ± 43 µM
- IC50 [5]: 1090 ± 45.1 µM
- Selectivity index SI = IC50 (MRC-5)/IC50 (U-87) [5]: 2.82

From article PMC10810434, “Thymoquinone-protoflavone hybrid molecules as potential antitumor agents” (PLOS ONE, 2024)
